ChEMBL document CHEMBL1137384, “Benzopyrans are selective estrogen receptor beta agonists with novel activity in models of benign prostatic hyperplasia” (J Med Chem, 2006)
Active and inactive are the calls of the source. The calls are words filed in the database; no cut-off is given here.

Assays:
Type in all cases: functional, organism-based
[1] = test system: Mus musculus; assay: Effect on seminal vesicle weight in po dosed CD1 mouse after 7 days
[2] = test system: Mus musculus; assay: Effect on ventral prostate weight in po dosed CD1 mouse after 7 days; conditions: Prostate gland
[3] = test system: Mus musculus; assay: Effect on dihydro testosterone level in CD1 mouse plasma at 0.1 mg/kg, po after 7 days; design: dose 0.1 mg/kg
[4] = test system: Mus musculus; assay: Ventral prostate involution in CD1 mouse at 30 mg/kg, po after 7 days; design: dose 30 mg/kg; conditions: Prostate gland
[5] = test system: Mus musculus; assay: Effect on testes weight in po dosed CD1 mouse after 7 days; conditions: Testis
[6] = test system: Mus musculus; assay: Effect on testosterone level in CD1 mouse plasma at 0.1 mg/kg, po after 7 days; design: dose 0.1 mg/kg

With `Oc1ccc([C@@H]2Oc3ccc(O)cc3[C@@H]3CCC[C@@H]32)cc1` as the compound, how does the Activity [1] read?
Its Activity is “inactive”.

And the Activity [2]?
Its Activity is “Dose-dependent effect”.

What about the Activity [3] of the same compound?
The Activity was “inactive”.

What about the Activity [4] of the same compound?
The Activity was “Active”.

What about the Activity [5] of the same compound?
The Activity was “inactive”.

What about the Activity [6] of the same compound?
Its Activity is “inactive”.

Which Activity [4] does the source give for `CC(C)(C)NC(=O)[C@H]1CC[C@H]2[C@@H]3CC[C@H]4NC(=O)C=C[C@]4(C)[C@H]3CC[C@]12C` here?
Its Activity is “Active”.
